Here are results for 23 compounds from patent US5114918A, “Endothelin antagonistic cyclic pentapeptides” (Banyu Pharmaceutical Co., Ltd., priority 1989, dated 1992).

Square brackets hold non-standard residues; d marks the D form. Peptide text beside a SMILES is read from it. dCya = N[C@H](CS(=O)(=O)O)C(=O)O; NMeA = CN[C@@H](C)C(=O)O; Nle = CCCC[C@H](N)C(=O)O; Orn = NCCC[C@H](N)C(=O)O

For this assay, the target named is T1, endothelin receptor (membrane of smooth muscle tissue of porcine aorta) (Sus scrofa, UniProt Q29010).
T1 construct: from tissue; host or cells: smooth muscle tissue of porcine aorta (membrane fraction)
T1 sequence (Q29010 21-427): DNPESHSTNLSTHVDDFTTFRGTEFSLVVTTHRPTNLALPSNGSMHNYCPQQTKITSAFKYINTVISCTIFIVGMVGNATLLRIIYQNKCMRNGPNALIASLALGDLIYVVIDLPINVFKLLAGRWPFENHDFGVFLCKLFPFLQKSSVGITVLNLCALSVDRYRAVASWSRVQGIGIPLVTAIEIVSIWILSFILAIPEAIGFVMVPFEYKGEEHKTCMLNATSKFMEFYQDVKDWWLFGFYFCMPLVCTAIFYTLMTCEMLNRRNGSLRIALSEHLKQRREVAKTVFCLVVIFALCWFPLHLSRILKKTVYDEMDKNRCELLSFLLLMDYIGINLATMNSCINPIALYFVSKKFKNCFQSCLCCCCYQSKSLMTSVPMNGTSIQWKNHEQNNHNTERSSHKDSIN
The assay can be described thus: Endothelin binding inhibition test (125I-endothelin-1, porcine aorta smooth muscle membrane). The conditions noted are these: 1.1 μM of the test compound; porcine aorta smooth muscle membrane; 25° C, 4 hours; read-out: 125I-endothelin-1 binding inhibition, Inhibition (%). Here is the method: Endothelin binding inhibition test
The smooth muscle tissue of porcine aorta was homogenized in a buffer solution of 10 mM MOPS, pH 7.4, at 4° C. by a polytron. To the homogenate, sucrose was added to a concentration of 20%, and the mixture was centrifuged at 1,000×g for 15 minutes, and the supernatant was further centrifuged at 10,000×g for 15 minutes. The supernatant thereof was further centrifuged at 90,000×g for 40 minutes. The membrane precipitate thereby obtained was suspended in a buffer solution of 5 mM HEPES/Tris, pH 7.4, at a concentration of 25 mg/ml.
Then, 16 μl of this membrane suspension was added to 340 μl of 50 mM Tris/HCl buffer, pH 7.4, containing 10 μM calcium chloride, 10 μM magnesium chloride, 0.1 mM PMSF, 1 μM pepstatin A, 2 μM leupeptin, 1 mM 1,10-phenanthroline and 0.1% bovine serum albumin. To this suspension, 4 μl of (A) endothelin-1 (for nonspecific binding: 0.2 μM as the final concentration), (B) buffer solution A (for total control binding), or (C) a test compound (1.1 μM as the final concentration), was added. Further, to each suspension, 40 μl of ^125 I-endothelin-1 (12000-18000 cpm) was added. These mixtures were incubated at 25° C for 4 hours, then subjected to filtration on a glass filter GF/C and then washed with 5 mM HEPES/Tris, pH 7.4, containing 0.3% bovine serum albumin. Then, the radioactivity trapped by the glass filter was measured, and the ^125 I-endothelin-1 binding inhibition D (%) at 1.1 μM of the test compound was determined by the following equation. [formula] Each test was performed in triplicate.
Regarding `CC(C)C[C@@H]1NC(=O)[C@@H](C(C)C)NC(=O)[C@H](CO)NC(=O)[C@@H](CCC(=O)O)NC(=O)[C@@H](Cc2c[nH]c3ccccc23)NC1=O` [Example 1, cyclo(-DTrp-DGlu-Ser-DVal-Leu-)] (cyclo(L[dW][dE]S[dV])), the inhibition at 1.1 µM amounted to 19%. Then `CC(C)C[C@@H]1NC(=O)[C@@H](C(C)C)NC(=O)[C@H](C)NC(=O)[C@@H](CS(=O)(=O)O)NC(=O)[C@@H](Cc2c[nH]c3ccccc23)NC1=O` [Example 2, cyclo(-DTrp-DCys(O3 Na)-Ala-DVal-Leu-)] (cyclo(A[dV]L[dW][dCya])), with 78%. The same measure for `CC(C)C[C@@H]1NC(=O)[C@@H](C(C)C)NC(=O)[C@H](CCCCN)NC(=O)[C@@H](CC(=O)O)NC(=O)[C@@H](Cc2c[nH]c3ccccc23)NC1=O` [Example 4, cyclo(-DTrp-DAsp-Lys-DVal-Leu-)] (cyclo(K[dV]L[dW][dD])): 74%; for `CCCC[C@@H]1NC(=O)[C@@H](C(C)C)NC(=O)[C@@H]2CCCN2C(=O)[C@@H](CS(=O)(=O)O)NC(=O)[C@@H](Cc2c[nH]c3ccccc23)NC1=O` [Example 5, cyclo(-DTrp-DCys(O3 Na)-Pro-DVal-Nle-)] (cyclo([Nle][dW][dCya]P[dV])): 81%; for `CC(C)C[C@@H]1NC(=O)[C@@H](CC(=O)O)NC(=O)[C@@H](Cc2c[nH]c3ccccc23)NC(=O)[C@H](CC(C)C)NC(=O)[C@@H](C(C)C)NC1=O` [Example 6, cyclo(-DTrp-DAsp-Leu-DVal-Leu-)] (cyclo(L[dV]L[dW][dD])): 72%. Then `CC(C)C[C@@H]1NC(=O)[C@@H](C(C)C)NC(=O)[C@H](C)NC(=O)[C@@H](CCC(=O)O)NC(=O)[C@@H](Cc2c[nH]c3ccccc23)NC1=O` [Example 7, cyclo(-DTrp-DGlu-Ala-DVal-Leu-)] (cyclo(A[dV]L[dW][dE])), with 27%. For `CC(C)C[C@@H]1NC(=O)[C@@H](C(C)C)NC(=O)[C@H](CC(=O)O)NC(=O)[C@@H](CCC(=O)O)NC(=O)[C@@H](Cc2c[nH]c3ccccc23)NC1=O` [Example 9, cyclo(-DTrp-DGlu-Asp-DVal-Leu-)] (cyclo(D[dV]L[dW][dE])), the inhibition at 1.1 µM amounted to 30%.

In the case of `CC(C)C[C@@H]1NC(=O)[C@@H](C(C)C)NC(=O)[C@@H]2CCCN2C(=O)[C@@H](CCC(=O)O)NC(=O)[C@@H](Cc2c[nH]c3ccccc23)NC1=O` [Example 10, cyclo(-DTrp-DGlu-Pro-DVal-Leu-)] (cyclo(L[dW][dE]P[dV])), the inhibition at 1.1 µM amounted to 54%. On to `CC(C)C[C@@H]1NC(=O)[C@@H](C(C)C)NC(=O)CNC(=O)[C@@H](CC(=O)O)NC(=O)[C@@H](Cc2c[nH]c3ccccc23)NC1=O` [Example 11, cyclo(-DTrp-DAsp-Gly-DVal-Leu-)] (cyclo(G[dV]L[dW][dD])), for which the inhibition at 1.1 µM is 74%. Turning to `CC(C)C[C@@H]1NC(=O)[C@@H](C(C)C)NC(=O)[C@H](C)N(C)C(=O)[C@@H](CC(=O)O)NC(=O)[C@@H](Cc2c[nH]c3ccccc23)NC1=O` [Example 13, cyclo(-DTrp-DAsp-MeAla-DVal-Leu-)] (cyclo(L[dW][dD][NMeA][dV])), the inhibition at 1.1 µM worked out at 85%. Then `CSCC[C@@H]1NC(=O)[C@@H](CC(=O)O)NC(=O)[C@@H](Cc2c[nH]c3ccccc23)NC(=O)[C@H](CC(C)C)NC(=O)[C@@H](C(C)C)NC1=O` [Example 14, cyclo(-DTrp-DAsp-Met-DVal-Leu-)] (cyclo(L[dW][dD]M[dV])), with 75%; and `CC(C)C[C@@H]1NC(=O)[C@@H](C(C)C)NC(=O)[C@H](Cc2ccc(O)cc2)NC(=O)[C@@H](CC(=O)O)NC(=O)[C@@H](Cc2c[nH]c3ccccc23)NC1=O` [Example 16, cyclo(-DTrp-DAsp-Tyr-DVal-Leu-)] (cyclo(L[dW][dD]Y[dV])), with 77%; and `CC(C)C[C@@H]1NC(=O)[C@@H](C(C)C)NC(=O)[C@H](Cc2c[nH]c3ccccc23)NC(=O)[C@@H](CC(=O)O)NC(=O)[C@@H](Cc2c[nH]c3ccccc23)NC1=O` [Example 17, cyclo(-DTrp-DAsp-Trp-DVal-Leu-)] (cyclo(L[dW][dD]W[dV])), with 75%.

For `CC(C)C[C@@H]1NC(=O)[C@@H](C(C)C)NC(=O)[C@H](Cc2c[nH]cn2)NC(=O)[C@@H](CC(=O)O)NC(=O)[C@@H](Cc2c[nH]c3ccccc23)NC1=O` [Example 18, cyclo(-DTrp-DAsp-His-DVal-Leu-)] (cyclo(H[dV]L[dW][dD])), the inhibition at 1.1 µM amounted to 69%. In the case of `CC(C)C[C@@H]1NC(=O)[C@@H](C(C)C)NC(=O)[C@H](CCCNC(=N)N)NC(=O)[C@@H](CC(=O)O)NC(=O)[C@@H](Cc2c[nH]c3ccccc23)NC1=O` [Example 19, cyclo(-DTrp-DAsp-Arg-DVal-Leu-)] (cyclo(L[dW][dD]R[dV])), the inhibition at 1.1 µM was determined as 70%. The same measure for `CC(C)C[C@@H]1NC(=O)[C@@H](C(C)C)NC(=O)[C@H](CCCN)NC(=O)[C@@H](CC(=O)O)NC(=O)[C@@H](Cc2c[nH]c3ccccc23)NC1=O` [Example 20, cyclo(-DTrp-DAsp-Orn-DVal-Leu-)] (cyclo(L[dW][dD][Orn][dV])): 65%. For the compound `CC(C)C[C@@H]1NC(=O)[C@@H](C(C)C)NC(=O)[C@H](CCC(N)=O)NC(=O)[C@@H](CC(=O)O)NC(=O)[C@@H](Cc2c[nH]c3ccccc23)NC1=O` [Example 21, cyclo(-DTrp-nAsp-Gln-DVal-Leu-)] (cyclo(L[dW][dD]Q[dV])), the inhibition at 1.1 µM came to 73%. The same measure for `CC(C)C[C@@H]1NC(=O)[C@@H](C(C)C)NC(=O)[C@H](CC(=O)O)NC(=O)[C@@H](CC(=O)O)NC(=O)[C@@H](Cc2c[nH]c3ccccc23)NC1=O` [Example 22, cyclo(-DTrp-DAsp-Asp-DVal-Leu-)] (cyclo(D[dV]L[dW][dD])): 75%; for `CC(C)C[C@@H]1NC(=O)[C@@H](C(C)C)NC(=O)[C@H](CCC(=O)O)NC(=O)[C@@H](CC(=O)O)NC(=O)[C@@H](Cc2c[nH]c3ccccc23)NC1=O` [Example 23, cyclo(-DTrp-DAsp-Glu-DVal-Leu-)] (cyclo(E[dV]L[dW][dD])): 72%; for `CC(C)C[C@@H]1NC(=O)[C@@H](C(C)C)NC(=O)[C@H](CS)NC(=O)[C@@H](CC(=O)O)NC(=O)[C@@H](Cc2c[nH]c3ccccc23)NC1=O` [Example 25, cyclo(-DTrp-DAsp-Cys-DVal-Leu-)] (cyclo(C[dV]L[dW][dD])): 74%. Then `CC(C)C[C@@H]1NC(=O)[C@@H](C(C)C)NC(=O)[C@H](CO)NC(=O)[C@@H](CC(=O)O)NC(=O)[C@@H](Cc2c[nH]c3ccccc23)NC1=O` [Example 26, cyclo(-DTrp-DAsp-Ser-DVal-Leu-)] (cyclo(L[dW][dD]S[dV])), with 75%; and `CC(C)C[C@@H]1NC(=O)[C@@H](C(C)C)NC(=O)[C@H]([C@@H](C)O)NC(=O)[C@@H](CC(=O)O)NC(=O)[C@@H](Cc2c[nH]c3ccccc23)NC1=O` [Example 27, cyclo(-DTrp-DAsp-Thr-DVal-Leu-)] (cyclo(L[dW][dD]T[dV])), with 66%. Then `CC(C)C[C@@H]1NC(=O)[C@@H](CC(C)C)NC(=O)[C@H](C)NC(=O)[C@@H](CC(=O)O)NC(=O)[C@@H](Cc2c[nH]c3ccccc23)NC1=O` [Example 28, cyclo(-DTrp-DAsp-Ala-DLeu-Leu-)] (cyclo(A[dL]L[dW][dD])), with 51%.

Broadly, the inhibition is the drop in the measured response relative to a control, in per cent.
